Assay results: patent US7323541B2, “Polypeptide DNA thereof and use of the same” (Takeda Pharmaceutical Company Limited, priority 2001, dated 2008)
Where a chain is given by its changes, count along the chain named. One block for each substance: values may come before it. Where no end group is shown, it is not given here.

How the values were obtained:
[1] = molecular target: T1, membrane fraction of TGR23-2 expressing CHO cells (Homo sapiens, UniProt Q6W5P4, N107I/Q344R); assay: GTPγS binding activity in membrane fraction; assay type: biochemical
T1 construct: the clones having the cDNA of TGR23-2, which is contained in pTB2174, were selected; expressed in transfected cells; host or cells: hamster CHO/dhfr- cells, vector pAKKO-111H (pAKKO-TGR23-2)
T1 sequence (Q6W5P4 1-371 N107I/Q344R): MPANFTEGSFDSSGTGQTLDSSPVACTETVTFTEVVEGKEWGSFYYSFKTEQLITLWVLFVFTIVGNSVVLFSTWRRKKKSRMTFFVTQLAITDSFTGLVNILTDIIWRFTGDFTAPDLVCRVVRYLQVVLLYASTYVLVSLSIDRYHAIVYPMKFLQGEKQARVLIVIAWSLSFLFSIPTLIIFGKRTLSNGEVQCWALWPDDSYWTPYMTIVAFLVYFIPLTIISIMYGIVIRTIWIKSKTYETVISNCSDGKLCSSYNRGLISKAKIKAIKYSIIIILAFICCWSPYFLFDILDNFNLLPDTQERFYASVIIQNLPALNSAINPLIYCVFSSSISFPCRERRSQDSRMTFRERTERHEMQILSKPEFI
Description: Enhancing activity of binding of [^35S]-Guanosine 5′-(γ-thio) triphosphate in the membrane fraction of TGR23-2 expressing CHO cells was measured by the following method. Firstly, it is described about preparation of membrane fraction. Twenty (20) ml of homogenation buffer (10 mM HEPES (pH7.3), 5 mM EDTA, 0.52 mM PMSF, 10 μg/ml pepstatin, 8 μg/ml E64, 20 μg/ml leupeptin) was added to 8×10^7 of TGR23-2 expressing CHO cells, and the cells were disrupted using Polytron (12,000 rpm, 30 seconds×3 times). The cell-disrupted fluids were centrifuged (1,000 g for 15 minutes) to get supernatant. Subsequently the supernatant was ultracentrifuged (Beckman type 30 rotor, 30,000 rpm, one hour), and the precipitate obtained was collected as a membrane fraction of TGR23-2 expressing CHO cells. The GTPγS binding activity was assayed as follows. The membrane fraction of TGR23-2 expressing CHO cells was diluted with membrane dilution buffer (50 mM Tris-HCl buffer (pH7.4), 5 mM MgCl2, 150 mM NaCl, 0.03% NaN3, 0.1% BSA, 1 μM GDP) to get cell membrane fraction solution for assay at the protein concentration of […]. Two (2) μl of 50 nM [^35S]-guanosine 5′-(γ-thio) triphosphate (NEN) and sample were added to 200 μl of cell membrane fraction solution for assay, and the mixture was incubated at 25° C. for one (1) hour. The mixture was filtered, and the filter was washed twice with 1.5 ml of washing buffer (50 mM Tris-HCl buffer (pH7.4), 5 mM MgCl2, 1 mM EDTA, 0.03% NaN3, 0.1% BSA). Then the radioactivity on the filter was measured by liquid scintillation counter. Human TGR23-2 ligand (1-20) prepared by the method described in Example 17, rat TGR23-2 ligand (1-18) prepared by the method described in Example 19 and mouse TGR23-2 ligand (1-20) prepared by the method described in Example 20 were administered to TGR23-2 expressing CHO cells at a variety of concentrations according to the method described above, and the GTPγS binding activity was determined.

[2] = molecular target: T2, TGR23-2 expressing CHO cells (Homo sapiens, UniProt Q6W5P4, N107I/Q344R); assay: Intracellular Ca ion concentration increasing activity using FLIPR; assay type: cell-based; conditions: variety of concentrations
T2 construct: the clones having the cDNA of TGR23-2, which is contained in pTB2174, were selected; expressed in transfected cells; host or cells: hamster CHO/dhfr- cells, vector pAKKO-111H (pAKKO-TGR23-2)
T2 sequence (Q6W5P4 1-371 N107I/Q344R): T1 sequence (Q6W5P4 1-371 N107I/Q344R)
Description: (§1) An enhancing activity of intracellular Ca^2+ release was assayed using FLIPR (Molecular Devices, Inc.). The CHO/TGR23-2 cells prepared in Example 1 and selected in Example 2 were plated on 96-well plate at 3×10^4 cells/well and cultured for 24 hours. A loading buffer was prepared by adding 1 vial of Fluo 3-AM to 10 ml of Hanks' solution (pH7.4) containing 2.5 mM Probenecid and 20 mM HEPES (hereafter, Hanks' solution (pH7.4) containing 2.5 mM Probenecid and 20 mM HEPES may be referred to as a washing buffer). The culture medium was discarded from the culture plate and 100 μl/well of the loading buffer were added to the cells. Then, the cells were incubated for 60 minutes in the incubator. After the loading buffer was removed from the culture plate and the cells were washed with the washing buffer, the plate was put in place of FLIPR. A sample was prepared by adding a sample buffer, which 2 mg/ml BSA and 1 mg/ml CHAPS were added to the washing buffer, to lyophilized product, stirring and treating by ultrasonication for 30 minutes, and transferred to 96-well sample plate. This sample plate was also put in place for assay. The enhancing activity of intracellular Ca^2+ release was measured as an increase of fluorescent intensity, which is raised by addition of the sample. Human TGR23-2 ligand (1-20) obtained in Example 17 was administered to TGR23-1 expressing CHO cells and TGR23-2 expressing CHO cells at a variety of concentrations according to the method described in Example 5, and the increasing activity of intracellular Ca ion concentration was determined using FLIPR. […] Rat TGR23-2 ligand (1-18) prepared by the method described in Example 19 and mouse TGR23-2 ligand (1-20) prepared by the method described in Example 20 were administered to TGR23-1 expressing CHO cells and TGR23-2 expressing CHO cells at a variety of concentrations according to the method described in Example 5, and the increasing activity of intracellular Ca ion concentration was determined using FLIPR.

[3] = molecular target: T3, TGR23-1 expressing CHO cells (Homo sapiens, UniProt Q6W5P4); assay: as above; assay type: cell-based; conditions: variety of concentrations
T3 construct: the clones having the cDNA of TGR23-1, which is contained in pTB2173, were selected; expressed in transfected cells; host or cells: hamster CHO/dhfr- cells, vector pAKKO-111H (pAKKO-TGR23-1), clones No. 49 and No. 52
T3 sequence (Q6W5P4 1-371): T1 sequence (Q6W5P4 1-371 N107I/Q344R) with I107N, R344Q
Description: as §1

[4] = test system: TGR23 gene in COLO 205; assay: Reduction of TGR23 gene expression (TaqMan PCR); assay type: cell-based, human; conditions: COLO 205, overnight after transfection
Description: (§2) The human colon cancer cell lines COLO 205 and LS 174T, wherein both were used in Example 46, were suspended in the same medium as that used in Example 46. The COLO 205 was seeded at the cell density of 24,000 per well to 24-well collagen type I coated plate (IWAKI), and the LS 174T was seeded at the cell density of 18,000 per well to 24-well flat bottom tissue culture plate (BD Falcon). After cell culture under 5% CO2 gas flow at 37° C. for overnight, in accordance with the method described in Example 46, the antisense oligonucleotide and control oligonucleotide, wherein both were used in Example 46, were transfected. Herein, adding volume of the oligonucleotide solution per well was 390 μl for COLO 205 and 300 μl for LS 174T. After transfection, the cells were cultured under 5% CO2 gas flow at 37° C. for overnight. Subsequently, using RNeasy Mini Total RNA Kit (QIAGEN), total RNA was extracted. Using the thus obtained total RNA as a template and TaqMan Reverse Transcription Reagents (Applied Biosystems), according to the attached protocol, reverse transcription reaction was carried out. Then using TaqMan Universal PCR Master Mix (Applied Biosystems), to the reaction sixture, cDNA corresponding 1.5 to 3 ng of total RNA as a template, 500 nM each of two primers (SEQ ID NO: 9 and SEQ ID NO: 10) and 100 nM FM-labeled probe (SEQ ID NO: 11) were added. The expressed copy numbers of the TGR23 gene were measured. The PCR reaction comprised the incubation at 50° C. for 2 minutes and 95° C. for 10 minutes, followed by the cycle set to include at 95° C. for 15 seconds and at 60° C. for one minute, which is repeated 40 times. When the antisense oligonucleotide and the control oligonucleotide were not transfected, an expression level of the TGR23 gene per 1 ng of total RNA was 620 copies for COLO 205 and 290 copies for LS 174T, whereas in the group with antisense oligonucleotide, it was 210 copies for COLO 205 and 150 copies for LS 174T. […] On the other hand, in the group with control oligonucleotide used as a negative control, the expression was 590 copies for COLO 205 and 280 copies for LS 174T, wherein it was not observed a statistically significant reduction of expression level, compared with non-transfection group.

[5] = test system: TGR23 gene in LS 174T; assay: Reduction of TGR23 gene expression (TaqMan PCR); assay type: cell-based, human; conditions: overnight after transfection
Description: as §2

[6] = test system: COLO 205; assay: Apoptosis induction (Cell Death Detection ELISA PLUS); assay type: cell-based, human; conditions: for Apoptosis inducing activity (A405-A492), Average: COLO 205, oligonucleotide 200 nM, three days
Description: (§3) Human colon cancer cell line COLO 205 acquired from ATCC was suspended in the RPMI-1640 medium (containing 25 mM HEPES) supplemented with 10% fetal calf serum (ATCC), and seeded at the cell density of 4000 per well in 96-well collagen type I coated plate (IWAKI). Human colon cancer cell line LS 174T acquired from ATCC was suspended in the Eagle's MEM, which is supplied from Invitrogen, supplemented with 10% fetal calf serum (ATCC), and seeded at the cell density of 3000 per well in 96-well flat bottom culture plate (BD Falcon). Human colon cancer cell line HCT 116 (ATCC) was suspended in D-MEM medium (containing 10 mM HEPES), which is supplied from Invitrogen, supplemented with 10% fetal calf serum (ATCC), and seeded at the cell density of 3000 per well in 96-well flat bottom culture plate (BD Falcon). After incubation under 5% CO2 gas flow at 37° C. for overnight, antisense oligonucleotide was transfected.
(§4) Antisense oligonucleotide sequence (SEQ ID NO: 123), which hybridizes to the translation region of TGR23 gene, was designed. Phosphorothioate-oligonucleotide was synthesized and purified by HPLC to use the transfection experiment (hereinafter, referred to as antisense oligonucleotide). For control, a reverse sequence (SEQ ID NO: 124) of the base sequence represented by SEQ ID NO: 123 was phosphorothioated and purified by HPLC to use (hereinafter, referred to as control oligonucleotide).
(§5) Specifically, in the case of COLO 205, to FuGENE™6 Transfection Reagent (Roche Diagnostics), which was diluted 167 fold with Opti-MEM I (Invitrogen), antisense oligonucleotide or control oligonucleotide was added. The mixed oligonucleotide solution was added to the plate at the ratio of 65 μl per well. The final concentration of oligonucleotide was adjusted to 200 nM. In the case of LS 174T, to Lipofectamine™2000 (Invitrogen), which was diluted 32 fold with Opti-MEM I (Invitrogen), antisense oligonucleotide or control oligonucleotide, which was diluted with Opti-MEM I (Invitrogen), was added at the ratio of 1:1. The mixed oligonucleotide solution was added to the plate at the ratio of 50 μl per well. The final concentration of oligonucleotide was adjusted to 33 nM. In the case of HCT 116, to OLIGOFECTAMINE™ Reagent (Invitrogen), which was diluted 5 fold with Opti-MEM I (Invitrogen), antisense oligonucleotide or control oligonucleotide, which was diluted with Opti-MEM I (Invitrogen), was added at the ratio of 3:8. The mixed oligonucleotide solution was added to the plate at the ratio of 40 μl per well. The final concentration of oligonucleotide was adjusted to 520 nM.
(§6) Under the above conditions, culture was continued for further three days. Using Cell Death Detection ELISA^PLUS Kit (Roche Diagnostics), in accordance with the attached protocol, apopyosis induction activity by the above oligonucleotide was measured.

[7] = test system: HCT 116; assay: as above; assay type: cell-based, human; conditions: for Apoptosis inducing activity (A405-A492), Average: HCT 116, oligonucleotide 520 nM, three days
Description: as §3, §4, §5, §6

[8] = test system: LS 174T; assay: as above; assay type: cell-based, human; conditions: for Apoptosis inducing activity (A405-A492), Average: LS174T, oligonucleotide 33 nM, three days
Description: as §3, §4, §5, §6

GTPγS binding activity [1]: enhance the GTPγS binding activity
Substance: SFRNGVGSGAKKTSFRRAKQ [mouse TGR23-2 ligand (1-20)]
increase of intracellular Ca ion concentration [2]: clearly enhance an increase of intracellular Ca ion concentration
increase of intracellular Ca ion concentration [3]: clearly enhance an increase of intracellular Ca ion concentration

Substance: antisense oligonucleotide: phosphorothioate oligonucleotide which hybridizes to the translation region of TGR23 gene (antisense GACCCACAGAGTTATCAATT; DNA, all phosphorothioate, methylation of C not given here)
expression level of the TGR23 gene per 1 ng of total RNA [4]: 210 copies
expression level of the TGR23 gene per 1 ng of total RNA [5]: 150 copies
Apoptosis inducing activity (A405-A492), Average [6]: 0.83
apoptosis induction activity relative to control oligonucleotide ([6]; COLO 205, p≦0.05): 1.6 fold
apoptosis induction activity compared with control oligonucleotide ([7]; HCT 116, in which TGR23 is not expressed): did not exhibit a significant apoptosis induction activity
Apoptosis inducing activity (A405-A492), Average [7]: 0.68
Apoptosis inducing activity (A405-A492), Average [8]: 1.1
apoptosis induction activity relative to control oligonucleotide ([8]; LS 174T, p≦0.01): 1.3 fold

Substance: control oligonucleotide: phosphorothioated reverse sequence of SEQ ID NO: 123, negative control (TTAACTATTGAGACACCCAG; DNA, all phosphorothioate, methylation of C not given here) [reference compound]
expression level of the TGR23 gene per 1 ng of total RNA [4]: 590 copies
expression level of the TGR23 gene per 1 ng of total RNA [5]: 280 copies
Apoptosis inducing activity (A405-A492), Average [6]: 0.52
Apoptosis inducing activity (A405-A492), Average [7]: 0.72
Apoptosis inducing activity (A405-A492), Average [8]: 0.88
